Assay results from ChEMBL document CHEMBL1134625 (J Med Chem, 2001).

Key:
[1] = target: T1, 5-hydroxytryptamine receptor 1A (Homo sapiens, UniProt P08908)
T1 sequence (P08908 whole entry): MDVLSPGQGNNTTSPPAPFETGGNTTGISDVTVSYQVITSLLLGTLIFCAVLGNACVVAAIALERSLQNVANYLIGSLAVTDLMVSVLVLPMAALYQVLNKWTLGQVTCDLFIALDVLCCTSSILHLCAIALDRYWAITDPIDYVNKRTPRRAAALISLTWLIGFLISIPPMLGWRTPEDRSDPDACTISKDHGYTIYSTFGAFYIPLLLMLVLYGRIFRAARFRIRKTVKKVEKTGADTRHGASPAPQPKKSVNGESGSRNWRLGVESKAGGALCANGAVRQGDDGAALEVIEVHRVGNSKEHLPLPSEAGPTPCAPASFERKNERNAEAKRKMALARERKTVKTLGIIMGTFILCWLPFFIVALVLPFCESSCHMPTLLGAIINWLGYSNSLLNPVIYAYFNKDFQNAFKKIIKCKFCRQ

Substance-K receptor = Substance-K receptor (Homo sapiens, UniProt P21452)
Substance-K receptor, sequence (P21452 whole entry): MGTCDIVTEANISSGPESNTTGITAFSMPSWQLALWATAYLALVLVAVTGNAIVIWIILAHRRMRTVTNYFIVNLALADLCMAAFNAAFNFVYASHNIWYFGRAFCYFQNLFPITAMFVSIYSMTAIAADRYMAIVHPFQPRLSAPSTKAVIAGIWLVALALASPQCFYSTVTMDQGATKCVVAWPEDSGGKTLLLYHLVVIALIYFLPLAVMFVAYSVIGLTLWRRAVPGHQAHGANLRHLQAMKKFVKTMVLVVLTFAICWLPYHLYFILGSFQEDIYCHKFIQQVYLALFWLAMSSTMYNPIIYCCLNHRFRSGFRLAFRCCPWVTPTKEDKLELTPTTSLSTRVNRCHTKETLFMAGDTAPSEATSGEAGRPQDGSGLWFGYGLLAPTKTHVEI

[2] = target: Melatonin receptor type 1A (Homo sapiens, UniProt P48039)
Melatonin receptor type 1A, sequence (P48039 whole entry): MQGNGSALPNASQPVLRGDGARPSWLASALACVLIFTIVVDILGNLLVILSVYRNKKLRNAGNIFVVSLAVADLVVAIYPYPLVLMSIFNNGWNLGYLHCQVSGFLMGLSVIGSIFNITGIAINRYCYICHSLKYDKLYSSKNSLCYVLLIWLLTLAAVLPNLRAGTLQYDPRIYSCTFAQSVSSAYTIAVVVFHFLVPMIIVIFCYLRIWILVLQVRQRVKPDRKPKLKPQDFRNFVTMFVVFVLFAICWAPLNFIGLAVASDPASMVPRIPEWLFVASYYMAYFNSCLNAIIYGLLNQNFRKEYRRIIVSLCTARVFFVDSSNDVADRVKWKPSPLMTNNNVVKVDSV

[3] = target: 5-hydroxytryptamine receptor 1B (Homo sapiens, UniProt P28222)
5-hydroxytryptamine receptor 1B, sequence (P28222 whole entry): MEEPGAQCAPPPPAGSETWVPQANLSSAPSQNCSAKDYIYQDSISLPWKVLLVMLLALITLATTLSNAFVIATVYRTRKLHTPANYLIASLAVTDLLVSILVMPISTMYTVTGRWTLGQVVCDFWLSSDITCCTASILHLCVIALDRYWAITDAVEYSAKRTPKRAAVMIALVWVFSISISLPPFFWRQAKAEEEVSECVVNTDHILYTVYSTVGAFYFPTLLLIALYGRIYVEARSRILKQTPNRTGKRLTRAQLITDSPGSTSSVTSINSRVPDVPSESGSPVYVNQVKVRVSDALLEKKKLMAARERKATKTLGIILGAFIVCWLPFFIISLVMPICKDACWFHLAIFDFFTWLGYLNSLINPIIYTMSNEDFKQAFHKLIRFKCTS

Adenosine receptor A1 = Adenosine receptor A1 (Homo sapiens, UniProt P30542)
Adenosine receptor A1, sequence (P30542 whole entry): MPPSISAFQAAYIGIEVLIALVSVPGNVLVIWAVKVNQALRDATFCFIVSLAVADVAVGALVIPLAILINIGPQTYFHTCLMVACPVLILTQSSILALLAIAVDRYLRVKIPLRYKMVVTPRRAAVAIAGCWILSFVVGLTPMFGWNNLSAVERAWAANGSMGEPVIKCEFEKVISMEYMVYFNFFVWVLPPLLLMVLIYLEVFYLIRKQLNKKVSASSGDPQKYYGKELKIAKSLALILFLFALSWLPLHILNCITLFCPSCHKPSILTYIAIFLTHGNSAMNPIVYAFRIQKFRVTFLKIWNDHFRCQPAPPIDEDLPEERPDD

Translocator protein = Translocator protein (Homo sapiens, UniProt P30536)
Translocator protein, sequence (P30536 whole entry): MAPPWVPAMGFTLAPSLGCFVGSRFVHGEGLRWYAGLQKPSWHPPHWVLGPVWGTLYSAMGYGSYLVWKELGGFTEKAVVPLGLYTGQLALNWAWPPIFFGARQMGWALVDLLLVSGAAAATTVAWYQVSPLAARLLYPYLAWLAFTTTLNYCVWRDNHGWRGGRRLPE

D(1B) dopamine receptor = D(1B) dopamine receptor (Homo sapiens, UniProt P21918)
D(1B) dopamine receptor, sequence (P21918 whole entry): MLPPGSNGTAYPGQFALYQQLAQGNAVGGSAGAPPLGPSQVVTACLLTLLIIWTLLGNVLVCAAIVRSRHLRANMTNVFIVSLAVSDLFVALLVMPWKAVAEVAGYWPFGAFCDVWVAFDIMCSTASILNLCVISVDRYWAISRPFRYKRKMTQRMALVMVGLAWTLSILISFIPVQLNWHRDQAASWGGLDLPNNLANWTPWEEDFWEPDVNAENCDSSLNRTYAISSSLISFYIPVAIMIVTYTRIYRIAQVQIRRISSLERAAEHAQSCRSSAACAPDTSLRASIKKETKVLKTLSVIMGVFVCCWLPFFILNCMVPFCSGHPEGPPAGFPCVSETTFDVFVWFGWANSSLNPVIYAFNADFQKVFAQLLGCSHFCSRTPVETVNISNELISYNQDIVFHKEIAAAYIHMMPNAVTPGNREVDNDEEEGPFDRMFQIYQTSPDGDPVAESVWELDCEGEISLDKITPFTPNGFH

Vasopressin V1a receptor = Vasopressin V1a receptor (Homo sapiens, UniProt P37288)
Vasopressin V1a receptor, sequence (P37288 whole entry): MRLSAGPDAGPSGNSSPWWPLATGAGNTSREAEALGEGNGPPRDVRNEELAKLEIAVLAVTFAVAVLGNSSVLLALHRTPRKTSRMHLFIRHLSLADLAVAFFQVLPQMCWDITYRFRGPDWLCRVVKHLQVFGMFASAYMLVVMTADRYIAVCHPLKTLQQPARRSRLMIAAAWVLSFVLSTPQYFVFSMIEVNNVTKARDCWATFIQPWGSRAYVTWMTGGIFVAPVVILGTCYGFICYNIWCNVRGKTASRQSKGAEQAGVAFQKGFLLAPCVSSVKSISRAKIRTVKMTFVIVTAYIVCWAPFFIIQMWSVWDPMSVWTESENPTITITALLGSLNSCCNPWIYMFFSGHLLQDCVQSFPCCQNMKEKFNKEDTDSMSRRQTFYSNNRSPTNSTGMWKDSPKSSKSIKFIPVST

D(1A) dopamine receptor = D(1A) dopamine receptor (Homo sapiens, UniProt P21728)
D(1A) dopamine receptor, sequence (P21728 whole entry): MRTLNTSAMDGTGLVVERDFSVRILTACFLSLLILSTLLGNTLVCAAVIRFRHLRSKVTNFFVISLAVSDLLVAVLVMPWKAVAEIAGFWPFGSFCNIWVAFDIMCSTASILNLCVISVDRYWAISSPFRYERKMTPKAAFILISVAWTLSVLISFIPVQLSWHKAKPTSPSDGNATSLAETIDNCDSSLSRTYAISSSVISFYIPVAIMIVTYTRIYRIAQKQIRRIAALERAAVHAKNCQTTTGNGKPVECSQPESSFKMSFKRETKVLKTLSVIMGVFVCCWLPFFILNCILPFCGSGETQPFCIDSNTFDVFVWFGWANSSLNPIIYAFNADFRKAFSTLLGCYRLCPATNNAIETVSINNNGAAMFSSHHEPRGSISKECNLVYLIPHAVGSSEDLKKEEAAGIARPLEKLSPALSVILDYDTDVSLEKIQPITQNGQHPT

[4] = target: Sodium-dependent noradrenaline transporter (Homo sapiens, UniProt P23975)
Sodium-dependent noradrenaline transporter, sequence (P23975 whole entry): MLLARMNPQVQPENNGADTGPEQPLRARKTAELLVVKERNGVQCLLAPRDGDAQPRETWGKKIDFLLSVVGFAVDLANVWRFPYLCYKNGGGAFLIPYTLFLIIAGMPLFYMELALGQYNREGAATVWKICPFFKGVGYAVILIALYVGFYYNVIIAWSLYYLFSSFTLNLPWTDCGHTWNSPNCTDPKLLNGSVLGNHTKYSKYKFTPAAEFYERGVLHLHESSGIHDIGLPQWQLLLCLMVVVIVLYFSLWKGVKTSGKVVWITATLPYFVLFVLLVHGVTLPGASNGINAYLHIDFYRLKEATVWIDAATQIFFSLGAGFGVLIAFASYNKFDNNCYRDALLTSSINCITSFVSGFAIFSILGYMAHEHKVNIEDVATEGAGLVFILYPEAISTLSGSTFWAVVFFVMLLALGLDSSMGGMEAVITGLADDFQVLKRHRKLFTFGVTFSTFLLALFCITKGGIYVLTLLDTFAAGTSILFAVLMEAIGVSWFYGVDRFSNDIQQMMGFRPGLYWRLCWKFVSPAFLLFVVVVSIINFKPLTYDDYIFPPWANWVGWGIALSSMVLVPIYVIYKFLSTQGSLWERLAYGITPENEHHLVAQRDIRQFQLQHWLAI

Adenosine receptor A3 = target: T2, Adenosine receptor A3 (Homo sapiens, UniProt P0DMS8)
T2 sequence (P0DMS8 whole entry): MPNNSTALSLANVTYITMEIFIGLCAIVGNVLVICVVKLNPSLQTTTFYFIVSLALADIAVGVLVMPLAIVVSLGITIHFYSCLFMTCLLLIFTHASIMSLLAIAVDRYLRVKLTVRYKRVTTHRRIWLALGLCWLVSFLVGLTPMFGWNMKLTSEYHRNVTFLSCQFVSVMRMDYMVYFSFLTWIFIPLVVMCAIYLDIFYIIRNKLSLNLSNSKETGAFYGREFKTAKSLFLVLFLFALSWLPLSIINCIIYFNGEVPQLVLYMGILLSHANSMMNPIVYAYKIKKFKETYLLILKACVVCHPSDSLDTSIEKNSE

[5] = target: T3, Adrenergic receptor alpha-1 (Homo sapiens, UniProt P35348+P25100+P35368); format: protein assay
T3 sequence (P35348 whole entry): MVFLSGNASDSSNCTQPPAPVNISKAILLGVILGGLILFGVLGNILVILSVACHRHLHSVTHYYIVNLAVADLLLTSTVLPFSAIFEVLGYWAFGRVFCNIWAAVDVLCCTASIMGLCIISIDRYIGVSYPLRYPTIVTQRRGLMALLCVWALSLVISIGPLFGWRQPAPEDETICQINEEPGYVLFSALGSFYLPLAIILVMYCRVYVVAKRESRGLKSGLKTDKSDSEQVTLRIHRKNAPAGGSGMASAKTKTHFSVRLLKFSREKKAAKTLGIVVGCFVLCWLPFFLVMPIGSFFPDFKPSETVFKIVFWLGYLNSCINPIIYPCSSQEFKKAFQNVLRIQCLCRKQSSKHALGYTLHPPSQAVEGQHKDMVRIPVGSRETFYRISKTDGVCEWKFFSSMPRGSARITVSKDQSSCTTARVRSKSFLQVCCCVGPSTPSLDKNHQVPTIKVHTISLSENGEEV
T3 sequence (P25100 whole entry): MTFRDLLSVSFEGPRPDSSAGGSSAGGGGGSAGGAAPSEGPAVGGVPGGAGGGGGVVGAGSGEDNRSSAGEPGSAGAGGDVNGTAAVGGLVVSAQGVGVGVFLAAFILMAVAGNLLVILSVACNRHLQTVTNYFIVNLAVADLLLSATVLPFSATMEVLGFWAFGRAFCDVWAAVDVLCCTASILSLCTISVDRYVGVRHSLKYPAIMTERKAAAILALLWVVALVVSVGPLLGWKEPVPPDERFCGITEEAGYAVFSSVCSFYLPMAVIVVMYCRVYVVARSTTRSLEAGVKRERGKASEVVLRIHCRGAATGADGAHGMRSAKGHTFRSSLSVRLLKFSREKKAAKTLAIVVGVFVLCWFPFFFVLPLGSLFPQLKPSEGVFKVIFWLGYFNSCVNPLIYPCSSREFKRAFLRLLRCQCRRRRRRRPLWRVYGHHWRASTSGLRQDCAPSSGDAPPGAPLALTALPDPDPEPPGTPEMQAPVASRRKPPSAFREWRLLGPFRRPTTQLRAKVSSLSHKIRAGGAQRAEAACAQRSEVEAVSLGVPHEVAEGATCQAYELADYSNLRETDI
T3 sequence (P35368 whole entry): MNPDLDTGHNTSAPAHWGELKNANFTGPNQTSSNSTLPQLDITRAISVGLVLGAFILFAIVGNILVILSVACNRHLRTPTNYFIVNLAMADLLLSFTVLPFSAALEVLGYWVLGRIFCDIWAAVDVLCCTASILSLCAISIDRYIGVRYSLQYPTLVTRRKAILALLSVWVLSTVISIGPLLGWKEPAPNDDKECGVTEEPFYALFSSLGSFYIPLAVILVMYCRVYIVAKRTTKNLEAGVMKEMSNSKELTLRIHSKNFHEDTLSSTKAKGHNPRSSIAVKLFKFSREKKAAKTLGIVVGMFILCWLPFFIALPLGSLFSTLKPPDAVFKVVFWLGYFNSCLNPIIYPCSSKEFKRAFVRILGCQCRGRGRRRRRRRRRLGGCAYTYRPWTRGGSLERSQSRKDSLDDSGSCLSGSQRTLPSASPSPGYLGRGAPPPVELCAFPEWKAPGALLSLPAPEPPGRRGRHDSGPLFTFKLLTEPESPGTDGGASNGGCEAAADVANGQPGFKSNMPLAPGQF

## O=C(OCc1cc2c(cc1Cl)OCO2)N1CCC(n2c(O)nc3ccccc32)CC1
[1]
  IC50: 4650 nM
Substance-K receptor
  IC50: 4420 nM
[2]
  IC50: 1740 nM
[3]
  IC50: 708 nM
Adenosine receptor A1
  IC50: 2640 nM
Translocator protein
  IC50: 1040 nM
D(1B) dopamine receptor
  IC50: 4890 nM
Vasopressin V1a receptor
  IC50: 2220 nM
D(1A) dopamine receptor
  IC50: 7580 nM
[4]
  IC50: 3020 nM
Adenosine receptor A3
  IC50: 1780 nM
[5]
  IC50: 1340 nM
